From US20240132431A1, “METHOD FOR ALKYLATING ACIDIC FUNCTIONAL GROUP” (Chugai Seiyaku Kabushiki Kaisha, priority 2021, published 2024)
Read-outs that look alike come from different tables or passages of the source.

Assays:
[1] = target: T1, Bcl-2 protein (Recombinant Human Bcl-2 Protein) (Homo sapiens, UniProt P10415); experiment: Binding evaluation of mixture library compounds to Bcl-2 using AS-MS (affinity selection mass spectrometry); settings: for ASMS ratio (%) n = 1 / ASMS ratio (%) n = 2: AS-MS, Bcl-2, ASMS Ratio(%)=(A−C)/B×100; for ASMS ratio (%) n = 1: replicate n = 1; for ASMS ratio (%) n = 2: replicate n = 2
T1 construct: purchased Novus NBP2-34889
T1 sequence (P10415 whole entry): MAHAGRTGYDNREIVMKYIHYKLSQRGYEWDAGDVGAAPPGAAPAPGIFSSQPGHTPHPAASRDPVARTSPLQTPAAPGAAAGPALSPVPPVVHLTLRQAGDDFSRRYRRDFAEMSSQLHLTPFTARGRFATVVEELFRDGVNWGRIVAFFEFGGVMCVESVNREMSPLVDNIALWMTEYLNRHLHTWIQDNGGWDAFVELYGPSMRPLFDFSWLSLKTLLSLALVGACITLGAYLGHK
Outline: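 Pooled library of ~1200 compounds ([…] each, final) incubated with recombinant human Bcl-2 (20 μM final) in Tris-HCl pH 7.4, NaCl, Tween-20, DTT buffer, dark, 23° C., 1 h. Bound fraction recovered by SEC spin column, organic extraction, reversed-phase LC/MS. ASMS Ratio (%) = (A−C)/B×100 versus protein-free standard and SEC blank.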

human Bcl-2 protein = target: T2, human Bcl-2 protein (Homo sapiens, UniProt P10415); experiment: Binding evaluation of compounds to Bcl-2 by surface plasmon resonance (SPR); settings: for equilibrium dissociation constant KD compared to compound B2Q045-01: binding to Bcl-2
T2 construct: purchased Novus Biologicals
T2 sequence (P10415 whole entry): as above
Description: In order to analyze the binding affinity of the compounds shown in [Table AK-O1] and synthesized in Example 8 to Bcl-2, the surface plasmon resonance method was used. Biacore T200 (GE Healthcare) was used as the apparatus, and HBS (10 mM HEPES-NaOH, 150 mM NaCl, pH 7.4) to which 1 mM DTT, 3 mM EDTA, 0.01% Tween 20, and 4% DMSO had been added was used as the running buffer. The human Bcl-2 protein (Novus Biologicals) was biotinylated using EZ-Link Sulfo-NHS-LC-LC-biotin (Thermofisher scientific) and immobilized on the surface of Sensor Chip SA (GE Healthcare). Thereafter, compound solutions of multiple concentrations and the running buffer (blank) were added to the Bcl-2 immobilized surface to obtain the binding response of the compounds. The measurement was carried out at 15° C.

[2] = first value in parentheses, (A−C)/B×100, 1200-compound mixture, Bcl-2 20 μM
[3] = second value in parentheses, (A−C)/B×100, 1200-compound mixture, Bcl-2 20 μM
[4] = Biacore T200, biotinylated human Bcl-2 immobilized on Sensor Chip SA, 15° C., compounds found by AS-MS evaluation of synthesized library
[5] = binding to Bcl-2, compounds evaluated before library synthesis, read-out: KD
[6] = Biacore T200, biotinylated human Bcl-2 immobilized on Sensor Chip SA, 15° C., compounds found by AS-MS evaluation of synthesized library, read-out: Equilibrium dissociation constant KD
[7] = Biacore T200, 15° C., compounds synthesized before performing library synthesis

SMILES	ASMS ratio (%) n = 1 ([1]; mixture of 1200 compounds) [%]	ASMS ratio (%) n = 2 ([1]; mixture of 1200 compounds) [%]	ASMS ratio (%) [1, 2] [%]	ASMS ratio (%) [1, 3] [%]	Equilibrium dissociation constant KD (human Bcl-2 protein; [4])	ASMS ratio (%) n = 1 ([1]; mixture library) [%]	ASMS ratio (%) n = 2 ([1]; mixture library) [%]	Kd (human Bcl-2 protein; [5]) [nM]	Kd (human Bcl-2 protein; [6]) [nM]	equilibrium dissociation constant KD compared to compound B2Q045-01 (human Bcl-2 protein)	ASMS ratio (%) ([1]; n = 1)	ASMS ratio (%) ([1]; n = 2)	Equilibrium dissociation constant KD (human Bcl-2 protein; [7])
CCOc1cccc(-c2ccc(CN3CCN(c4ccc(C(=O)NCC56CC7CC(CC(C7)C5)C6)nn4)CC3)c(CC)c2)c1 [B1A075-01, N-(1-adamantylmethyl)-6-[4-[[4-(3-ethoxyphenyl)-2-ethylphenyl]methyl]piperazin-1-yl]pyridazine-3-carboxamide]	31.3	28.6	31.3	28.6	Binding not observed								
CCOc1cncc(-c2ccccc2CCC(=O)N2CCN(c3ccc(C(=O)NS(=O)(=O)c4ccc(NCCSc5ccccc5)c([N+](=O)[O-])c4)nn3)CC2)c1 [B2Q012-01, 6-[4-[3-[2-(5-ethoxypyridin-3-yl)phenyl]propanoyl]piperazin-1-yl]-N-[3-nitro-4-(2-phenylsulfanylethylamino)phenyl]sulfonylpyridazine-3-carboxamide]			21.4	22.5	Bound	21.4	22.5						
CCOc1cccc(-c2ccccc2CN2CCN(c3ccc(C(=O)NS(=O)(=O)c4ccc(NCCSc5ccccc5)c([N+](=O)[O-])c4)cc3)CC2)c1 [B2Q045-01, 4-[4-[[2-(3-ethoxyphenyl)phenyl]methyl]piperazin-1-yl]-N-[3-nitro-4-(2-phenylsulfanylethylamino)phenyl]sulfonylbenzamide]			49.9	49.9		49.9	49.9	1200					
CCOc1cncc(-c2ccccc2CN2CCN(c3ccc(C(=O)NS(=O)(=O)c4ccc(NCCSc5ccccc5)c([N+](=O)[O-])c4)cc3)CC2)c1 [B2Q046-01, 4-[4-[[2-(5-ethoxypyridin-3-yl)phenyl]methyl]piperazin-1-yl]-N-[3-nitro-4-(2-phenylsulfanylethylamino)phenyl]sulfonylbenzamide]			20.3	20.5		20.3	20.5	8100					
CCOc1cccc(-c2ccc(CN3CCN(c4ccc(C(=O)NS(=O)(=O)c5ccc(NCCSc6ccccc6)c([N+](=O)[O-])c5)cc4)CC3)cc2C)c1 [B2Q047-01, 4-[4-[[4-(3-ethoxyphenyl)-3-methylphenyl]methyl]piperazin-1-yl]-N-[3-nitro-4-(2-phenylsulfanylethylamino)phenyl]sulfonylbenzamide]			142.5	326.4		142.5	326.4		700	smaller equilibrium dissociation constants KD			
CCOc1cncc(-c2ccc(CN3CCN(c4ccc(C(=O)NS(=O)(=O)c5ccc(NCCSc6ccccc6)c([N+](=O)[O-])c5)cc4)CC3)cc2C)c1 [B2Q048-01, 4-[4-[[4-(5-ethoxypyridin-3-yl)-3-methylphenyl]methyl]piperazin-1-yl]-N-[3-nitro-4-(2-phenylsulfanylethylamino)phenyl]sulfonylbenzamide]			61.6	90.8		61.6	90.8		480	smaller equilibrium dissociation constants KD			
CCOc1cccc(-c2ccc(CN3CCN(c4ccc(C(=O)NS(=O)(=O)c5ccc(NCCSc6ccccc6)c([N+](=O)[O-])c5)cc4)CC3)c(OC)c2)c1 [B2Q053-01, 4-[4-[[4-(3-ethoxyphenyl)-2-methoxyphenyl]methyl]piperazin-1-yl]-N-[3-nitro-4-(2-phenylsulfanylethylamino)phenyl]sulfonylbenzamide]			22.4	15.5	Binding not observed	22.4	15.5						
CCOc1cncc(-c2ccc(CN3CCN(c4ccc(C(=O)NS(=O)(=O)c5ccc(NCCSc6ccccc6)c([N+](=O)[O-])c5)cc4)CC3)c(OC)c2)c1 [B2Q054-01, 4-[4-[[4-(5-ethoxypyridin-3-yl)-2-methoxyphenyl]methyl]piperazin-1-yl]-N-[3-nitro-4-(2-phenylsulfanylethylamino)phenyl]sulfonylbenzamide]			44.1	65.0		44.1	65.0		1270				
CCOc1cncc(-c2ccc(CN3CCN(c4ccc(C(=O)NS(=O)(=O)c5ccc(NCCSc6ccccc6)c([N+](=O)[O-])c5)cc4)CC3)c3ccccc23)c1 [B2Q066-01, 4-[4-[[4-(5-ethoxypyridin-3-yl)naphthalen-1-yl]methyl]piperazin-1-yl]-N-[3-nitro-4-(2-phenylsulfanylethylamino)phenyl]sulfonylbenzamide]			40.7	36.9		40.7	36.9		950				
CCOc1cccc(-c2ccc(C(C)N3CCN(c4ccc(C(=O)NS(=O)(=O)c5ccc(NCCSc6ccccc6)c([N+](=O)[O-])c5)cc4)CC3)cc2)c1 (centres unmarked) [B2Q097-01, 4-[4-[1-[4-(3-ethoxyphenyl)phenyl]ethyl]piperazin-1-yl]-N-[3-nitro-4-(2-phenylsulfanylethylamino)phenyl]sulfonylbenzamide]			142.5	326.4	Binding not observed	142.5	326.4						
CCOc1cncc(-c2ccc(C(C)N3CCN(c4ccc(C(=O)NS(=O)(=O)c5ccc(NCCSc6ccccc6)c([N+](=O)[O-])c5)cc4)CC3)cc2)c1 (centres unmarked) [B2Q098-01, 4-[4-[1-[4-(5-ethoxypyridin-3-yl)phenyl]ethyl]piperazin-1-yl]-N-[3-nitro-4-(2-phenylsulfanylethylamino)phenyl]sulfonylbenzamide]			61.6	90.8	Binding not observed	61.6	90.8						
CCOc1cccc(-c2ccccc2CN2CCN(c3ccc(C(=O)NS(=O)(=O)c4ccc(NCCSc5ccccc5)c(C(F)(F)F)c4)cc3)CC2)c1 [B2R045-01, 4-[4-[[2-(3-ethoxyphenyl)phenyl]methyl]piperazin-1-yl]-N-[4-(2-phenylsulfanylethylamino)-3-(trifluoromethyl)phenyl]sulfonylbenzamide]								> 20000			4.8	−3.4	Bound
CCOc1cncc(-c2ccccc2CN2CCN(c3ccc(C(=O)NS(=O)(=O)c4ccc(NCCSc5ccccc5)c(C(F)(F)F)c4)cc3)CC2)c1 [B2R046-01, 4-[4-[[2-(5-Ethoxypyridin-3-yl)phenyl]methyl]piperazin-1-yl]-N-[4-(2-phenylsulfanylethylamino)-3-(trifluoromethyl)phenyl]sulfonylbenzamide]								> 20000			−0.2	0.0	Bound
